Common to all, as to assay: Post-emergence herbicidal activity test (stem and leaf spray, pot culture)
Common to all, as to type: in vivo
Holding throughout (details): 3 weeks after spraying

One test relates to Abutilon theophrasti. An outline of the steps:
(§1)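 Pot-grown weeds in loam (pH 7, 1.63% organic matter) were spray-treated on stems and leaves at the 2- to 3-leaf stage with compound in acetone/Tween 80 plus 1.5 liters/ha methyl oleate at 10, 5 or 2.5 g/mu. Fresh-weight growth control was scored 3 weeks later as grades 0–5.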

For the next test, the system named is Amaranthus retroflexus. An outline of the steps:
as §1

Another test has as its system Echinochloa crusgalli. An outline of the steps: as §1
A further test deals with Portulaca oleracea. An outline of the steps: as §1
For a further test, the system named is Setaria viridis. An outline of the steps:
as §1

The next test deals with Trifoliumre pensL. The procedure, abridged: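 Rates of 10, 5 and 2.5 g/mu were applied in a single spray-tower treatment to 2–3-leaf plants, thinned to 10 per pot. Formulation: acetone solution, Tween 80, 1.5 L/ha methyl oleate synergist. Weed response assessed after 3 further greenhouse weeks; mean of three experiments.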

With `O=C1C2=C(CCCC2)C(=O)N1c1cc(OCc2nc(-c3cnc(C(F)(F)F)cc3Cl)no2)c(Cl)cc1F` [Compound A10], the “Post-emergence herbicidal activity, A. theophrasti (grade)” value in the test with Abutilon theophrasti (dosage 2.5 g/mu), in the test on Abutilon theophrasti (dosage 5 g/mu) and with Abutilon theophrasti (dosage 10 g/mu) was 5 (Grade 5: the growth control rate is greater than or equal to 85%) each time. The “Post-emergence herbicidal activity, A. retroflexus (grade)” value in the test with Amaranthus retroflexus (dosage 2.5 g/mu), in the test with Amaranthus retroflexus (dosage 5 g/mu) and in the test on Amaranthus retroflexus (dosage 10 g/mu) was 5 (Grade 5: the growth control rate is greater than or equal to 85%) throughout. In addition, the “Post-emergence herbicidal activity, E. crusgalli (grade)” value with Echinochloa crusgalli (dosage 2.5 g/mu) was 1 (Grade 1: the growth control rate is greater than or equal to 5% and less than 20%); with Echinochloa crusgalli (dosage 5 g/mu), 2 (Grade 2: the growth control rate is greater than or equal to 20% and less than 40%); in the test on Echinochloa crusgalli (dosage 10 g/mu) it was 3 (Grade 3: the growth control rate is greater than or equal to 40% and less than 60%). In addition, the “Post-emergence herbicidal activity, P. oleracea (grade)” value in the test with Portulaca oleracea (dosage 2.5 g/mu) was 4 (Grade 4: the growth control rate is greater than or equal to 60% and less than 85%); in the test on Portulaca oleracea (dosage 5 g/mu), 5 (Grade 5: the growth control rate is greater than or equal to 85%); with Portulaca oleracea (dosage 10 g/mu), 5 (Grade 5: the growth control rate is greater than or equal to 85%). Further, the “Post-emergence herbicidal activity, S. viridis (grade)” value with Setaria viridis (dosage 2.5 g/mu) is 2 (Grade 2: the growth control rate is greater than or equal to 20% and less than 40%); in the test with Setaria viridis (dosage 5 g/mu), 3 (Grade 3: the growth control rate is greater than or equal to 40% and less than 60%); in the test with Setaria viridis (dosage 10 g/mu), 4 (Grade 4: the growth control rate is greater than or equal to 60% and less than 85%). Also, the “Post-emergence herbicidal activity, Trifoliumre pensL. (grade)” value in the test with Trifoliumre pensL. (dosage 2.5 g/mu) is 4 (Grade 4: the growth control rate is greater than or equal to 60% and less than 85%); in the test on Trifoliumre pensL. (dosage 5 g/mu), 5 (Grade 5: the growth control rate is greater than or equal to 85%); with Trifoliumre pensL. (dosage 10 g/mu), 5 (Grade 5: the growth control rate is greater than or equal to 85%).
As for `O=C(COc1cc(N2C(=O)C3=C(CCCC3)C2=O)c(F)cc1Cl)c1cccc(F)c1` [Compound C7, 2-(4-chloro-2-fluoro-5-(2-oxo-2-(3-fluorophenyl)ethoxy)phenyl)-4,5,6,7-tetrahydro-1H-isoindole-1,3(2H)-dione], the “Post-emergence herbicidal activity, A. theophrasti (grade)” value in the test with Abutilon theophrasti (dosage 2.5 g/mu), with Abutilon theophrasti (dosage 5 g/mu) and in the test on Abutilon theophrasti (dosage 10 g/mu) was 5 (Grade 5: the growth control rate is greater than or equal to 85%) in each case. The “Post-emergence herbicidal activity, A. retroflexus (grade)” value with Amaranthus retroflexus (dosage 2.5 g/mu), in the test on Amaranthus retroflexus (dosage 5 g/mu) and in the test on Amaranthus retroflexus (dosage 10 g/mu) was 5 (Grade 5: the growth control rate is greater than or equal to 85%) each time. The “Post-emergence herbicidal activity, E. crusgalli (grade)” value in the test with Echinochloa crusgalli (dosage 2.5 g/mu) is 1 (Grade 1: the growth control rate is greater than or equal to 5% and less than 20%); in the test with Echinochloa crusgalli (dosage 5 g/mu), 2 (Grade 2: the growth control rate is greater than or equal to 20% and less than 40%); in the test on Echinochloa crusgalli (dosage 10 g/mu), 3 (Grade 3: the growth control rate is greater than or equal to 40% and less than 60%). Further, the “Post-emergence herbicidal activity, P. oleracea (grade)” value with Portulaca oleracea (dosage 2.5 g/mu), in the test with Portulaca oleracea (dosage 5 g/mu) and with Portulaca oleracea (dosage 10 g/mu) was 5 (Grade 5: the growth control rate is greater than or equal to 85%) in each case. In addition, the “Post-emergence herbicidal activity, S. viridis (grade)” value in the test with Setaria viridis (dosage 2.5 g/mu) is 2 (Grade 2: the growth control rate is greater than or equal to 20% and less than 40%); with Setaria viridis (dosage 5 g/mu), 3 (Grade 3: the growth control rate is greater than or equal to 40% and less than 60%); with Setaria viridis (dosage 10 g/mu) it was 4 (Grade 4: the growth control rate is greater than or equal to 60% and less than 85%). The “Post-emergence herbicidal activity, Trifoliumre pensL. (grade)” value in the test with Trifoliumre pensL. (dosage 2.5 g/mu), with Trifoliumre pensL. (dosage 5 g/mu) and in the test on Trifoliumre pensL. (dosage 10 g/mu) was 5 (Grade 5: the growth control rate is greater than or equal to 85%) in each case.
Consider `Cc1cccc(-c2nnc(COc3cc(N4C(=O)C5=C(CCCC5)C4=O)c(F)cc3Cl)o2)c1` [Compound B3, 2-(4-chloro-2-fluoro-5-(5-(3-tolyl)-1,3,4-oxadiazole-2-methoxy)phenyl)-4,5,6,7-tetrahydro-1H-isoindole-1,3(2H)-dione], for which the “Post-emergence herbicidal activity, A. theophrasti (grade)” value with Abutilon theophrasti (dosage 2.5 g/mu), with Abutilon theophrasti (dosage 5 g/mu) and in the test on Abutilon theophrasti (dosage 10 g/mu) was 5 (Grade 5: the growth control rate is greater than or equal to 85%) each time. The “Post-emergence herbicidal activity, A. retroflexus (grade)” value with Amaranthus retroflexus (dosage 2.5 g/mu), in the test on Amaranthus retroflexus (dosage 5 g/mu) and in the test with Amaranthus retroflexus (dosage 10 g/mu) was 5 (Grade 5: the growth control rate is greater than or equal to 85%) in each case. For the same compound, the “Post-emergence herbicidal activity, E. crusgalli (grade)” value in the test with Echinochloa crusgalli (dosage 2.5 g/mu) is 1 (Grade 1: the growth control rate is greater than or equal to 5% and less than 20%); in the test on Echinochloa crusgalli (dosage 5 g/mu) it was 2 (Grade 2: the growth control rate is greater than or equal to 20% and less than 40%); in the test on Echinochloa crusgalli (dosage 10 g/mu), 3 (Grade 3: the growth control rate is greater than or equal to 40% and less than 60%). For the same compound, the “Post-emergence herbicidal activity, P. oleracea (grade)” value with Portulaca oleracea (dosage 2.5 g/mu), in the test on Portulaca oleracea (dosage 5 g/mu) and in the test with Portulaca oleracea (dosage 10 g/mu) was 5 (Grade 5: the growth control rate is greater than or equal to 85%) in each case. Further, the “Post-emergence herbicidal activity, S. viridis (grade)” value was 2 (Grade 2: the growth control rate is greater than or equal to 20% and less than 40%) in the test with Setaria viridis (dosage 2.5 g/mu); 3 (Grade 3: the growth control rate is greater than or equal to 40% and less than 60%) in the test with Setaria viridis (dosage 5 g/mu); 4 (Grade 4: the growth control rate is greater than or equal to 60% and less than 85%) in the test on Setaria viridis (dosage 10 g/mu). Further, the “Post-emergence herbicidal activity, Trifoliumre pensL. (grade)” value in the test on Trifoliumre pensL. (dosage 2.5 g/mu), in the test with Trifoliumre pensL. (dosage 5 g/mu) and with Trifoliumre pensL. (dosage 10 g/mu) was 5 (Grade 5: the growth control rate is greater than or equal to 85%) throughout.

The values are drawn from US20240300932A1, “N-PHENYLIMINE DERIVATIVE AND PREPARATION METHOD AND USE THEREOF” (Guizhou University, priority 2023, published 2024).
